Laboratory results published in patent publication US20150073055A1, “USE OF MODAFINIL IN THE TREATMENT OF COCAINE ADDICTS” (DEBREGEAS ET ASSOCIES PHARMA, priority 2012, published 2015).

Tests used:
[1] = estimated; absolute bioavailability was not able to be determined; cited from earlier work
[2] = cited from earlier work
[3] = Solubility in supercritical CO2 or another supercritical solvent; type: physicochemical
Experimental: A method for a novel formulation being the object of the present invention, uses the technology of supercritical CO2 based on the solvent power of CO2 which may be modulated at will according to the pressure and temperature conditions which are applied to it. In the supercritical state (more than 74 bars and 31° C.), CO2 has very particular properties. The obtained fluid is characterized by great diffusivity (of the order of that of gases), which gives it good diffusion capability, and a high density which provides it with significant transport and extraction capability.
A supercritical fluid has another advantage over other solvents: its solubility changes depending on whether its temperature or its pressure is varied. Thus it is possible to ensure that it is a solvent for certain substances at a given instant, and no longer for one at the following instant. This facilitates recovery of the substance which was dissolved.
The following step consists of spraying the dissolved active ingredient on an inert support, and then of studying the grain size of the obtained particles as well as the crystalline form of the same particles.
Different parameters were then modified: • changing the inert support (anhydrous lactose replaced with mannitol), • increasing the loading level up to 30% of active ingredient load, • using S modafinil, • a supercritical solvent other than CO2 . […]

[4] = crystalline white powder, cited from earlier work

Compound | bioavailability [1] | elimination half-life ([2]; in humans) | solubility in CO2 [3] | solubility in acetone ([4]; acetone) | solubility in methanol ([4]; methanol) | solubility in water ([4]; water) | AUC (area under the curve) compared with the racemic form ([2]; after administration) | variability of plasma levels compared with the racemic form ([2]; after administration)
NC(=O)C[S+]([O-])C(c1ccccc1)c1ccccc1 (racemic) [Modafinil, 2-[(diphenylmethyl)sulfinyl]acetamide] | about 40% | about 14 hours | acceptable solubility | partly soluble | partly soluble | practically insoluble | – | –
NC(=O)C[S@@+]([O-])C(c1ccccc1)c1ccccc1 (single isomer, unassigned) [enantiomer R] | – | – | – | – | – | – | greater AUC (area under the curve) than the racemic form | less variability of plasma levels
